As usually defined, the inhibition is the share of the control response that was lost under treatment. Broadly, the MIC is the least concentration at which growth counts as inhibited. Lower therefore signals inhibition by little substance.

In assay [1] the test system is THP-1. The experiment in a line: Antiinflammatory activity in human THP1 cells assessed as inhibition of LPS-induced TNFalpha production at 1 uM treated 30 mins before LPS challenge measured after 24 hrs by ELISA relative to control. The format is functional. For orientation: ELISA stands for enzyme-linked immunosorbent assay.
The subject of assay [2] is THP-1. Nature of the assay: Antiinflammatory activity in human THP1 cells assessed as inhibition of LPS-induced IL-6 production at 1 uM treated 30 mins before LPS challenge measured after 24 hrs by ELISA relative to control. It is filed as functional.
For the next assay, the system named is Escherichia coli. Conditions: NCIM 2065.
For a further assay, the system named is Staphylococcus aureus. The following applies: NCIM 2120.
The next assay has as its system Klebsiella pneumoniae. The following applies: NCIM 5082.
For a further assay, the system named is Bacillus subtilis. The following applies: NCIM 2546.
The next assay has as its system Proteus vulgaris. Conditions: NCIM 2813.

Description for Bacillus subtilis: Antibacterial activity against Bacillus subtilis NCIM 2546 after 24 hrs by disc diffusion method
Description for Escherichia coli: Antibacterial activity against Escherichia coli NCIM 2065 after 24 hrs by disc diffusion method
Description for Klebsiella pneumoniae: Antibacterial activity against Klebsiella pneumoniae NCIM 5082 after 24 hrs by disc diffusion method
Description for Proteus vulgaris: Antibacterial activity against Proteus vulgaris NCIM 2813 after 24 hrs by disc diffusion method
Description for Staphylococcus aureus: Antibacterial activity against Staphylococcus aureus NCIM 2120 after 24 hrs by disc diffusion method

`C[C@@H]1C[C@H]2[C@@H]3CCC4=CC(=O)C=C[C@]4(C)[C@@]3(F)[C@@H](O)C[C@]2(C)[C@@]1(O)C(=O)CO` [DEXAMETHASONE]: the inhibition at 1 µM with THP-1 [1] is 69%; with THP-1 [2], 90%.
Regarding GENTAMICIN, the MIC in the assay with Escherichia coli, against Staphylococcus aureus, in the assay on Klebsiella pneumoniae, in the assay with Bacillus subtilis and against Proteus vulgaris was 25 µg/mL throughout. Besides, the IZ is 24 mm in the assay with Klebsiella pneumoniae, 21 mm with Bacillus subtilis and 24 mm in the assay on Proteus vulgaris.

(Values after ChEMBL document CHEMBL1177886, “Synthesis and biological evaluation of a novel series of 2,2-bisaminomethylated aurone analogues as anti-inflammatory and antimicrobial agents” (Eur J Med Chem, 2010).)
